Measurements: ChEMBL document CHEMBL4699626, “Potential α-glucosidase inhibitor from Hylotelephium erythrostictum” (Bioorg Med Chem Lett, 2020)
pIC50, pKi: −log10 of the molar value. Calls of active or inactive are those of the source. The rule behind the calls is not given here.

Key:
[1] = Inhibition of alpha-glucosidase (unknown origin) using p-nitrophenyl-alpha-D-glucopyranoside as substrate; details: for pIC50: read-out: IC50
Homo sapiens [2] = species on record: Homo sapiens; test: Potency index, ratio of Acarbose IC50 to test compound IC50 for alpha-glucosidase (unknown origin)
Homo sapiens [3] = species on record: Homo sapiens; test: Competitive inhibition of alpha-glucosidase (unknown origin) assessed as increase in Km with constant Vmax by Lineweaver-Burk plot analysis
[4] = Competitive inhibition of alpha-glucosidase (unknown origin) by Dixon plot analysis; parameters: species or system Homo sapiens
[5] = Inhibition of Saccharomyces cerevisiae alpha-glucosidase assessed as decrease in release of p-nitrophenol using pNPG as substrate preincubated for 2 hrs followed by substrate addition by spectrophotometric method
[6] = Inhibition of alpha-glucosidase (unknown origin); parameters: species or system Homo sapiens

O=c1c(O)c(-c2ccc(O)cc2)oc2cc(O)cc(O)c12 [KAEMPFEROL]
pIC50 [1]: 3.38

COc1cc(O)c2c(=O)c(O)c(-c3ccc(O)cc3)oc2c1 [RHAMNOCITRIN]
pIC50 [1]: 3.14

COC1(c2ccc(O)c(O)c2)Oc2cc(O)cc(O)c2C1=O (centres undefined)
Ratio IC50 (Homo sapiens [2]): 457 | inhibition (Homo sapiens [3]): Active | pKi [4]: 6.15 | pIC50 [1]: 5.74

COc1cc(OC)c2c(c1)OC(OC)(c1ccc(OC)c(OC)c1)C2=O (centres undefined)
IC50 [1]: Not Active

O=c1cc(-c2ccc(O)cc2)oc2cc(O)cc(O)c12 [APIGENIN]
pIC50 [5]: 3.44

COc1ccc(-c2oc3cc(O)cc(O)c3c(=O)c2O)cc1 [KAEMPFERIDE]
pIC50 [6]: 3.19
